The values that follow come from PubChem BioAssay AID2060497 (Molecular Pharmacology Branch, DTP, NCI, 2025).
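Also: spheroids exposed to compounds for one week before readout; percent viability relative to DMSO vehicle wells taken as 100%.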

In the first test the test system is 317291-083-R-J1-PDC complex spheroids, viability. In words: Anticancer human tumor 317291-083-R-J1-PDC patient-derived soft tissue sarcoma cell line growth inhibition [GQUAD]. Conditions: second compound 0.316 µM; first compound 1 µM; stronger effect = lower value. In short, it runs like this:
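Tumor cells were grown as complex spheroids with HUVEC endothelial cells and mesenchymal stem cells as stroma. G-quadruplex stabilizers were combined with targeted agents over half-log dilutions from near the clinical Cmax, or from 10 microM.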
One may read the viability, T/C as the result in the treated group divided by that in the control group, in per cent. With `COc1ncnc(C2CC2)c1-c1ncc2cnn(Cc3ccc(-c4nc(C(F)(F)F)cn4C(C)C)cc3)c2n1` + Cc1[nH]c2ccc(F)cc2c1-c1nc2c3cccnc3c3ncccc3c2[nH]1, the viability, T/C is 37.2%.
Same read-out and setting: the same measure for `CCCS(=O)(=O)Nc1ccc(F)c(C(=O)c2c[nH]c3ncc(-c4ccc(Cl)cc4)cc23)c1F` + Cc1cnc(CNC(=O)c2c(=O)c3ccc(N4CCCN(C)CC4)nc3n3c2sc2ccccc23)cn1: 38.1%; for `O=C(c1cc(Cc2n[nH]c(=O)c3ccccc23)ccc1F)N1CCN(C(=O)C2CC2)CC1` + Cc1[nH]c2ccc(F)cc2c1-c1nc2c3cccnc3c3ncccc3c2[nH]1: 103%.

Still in this test, the particulars now being: second compound 0.316 µM; first compound 3.16 µM; stronger effect = lower value.
As to `COc1ncnc(C2CC2)c1-c1ncc2cnn(Cc3ccc(-c4nc(C(F)(F)F)cn4C(C)C)cc3)c2n1` + Cc1[nH]c2ccc(F)cc2c1-c1nc2c3cccnc3c3ncccc3c2[nH]1, the viability, T/C was 46%.
The same measure, in the same setting: the same measure for `CCCS(=O)(=O)Nc1ccc(F)c(C(=O)c2c[nH]c3ncc(-c4ccc(Cl)cc4)cc23)c1F` + Cc1cnc(CNC(=O)c2c(=O)c3ccc(N4CCCN(C)CC4)nc3n3c2sc2ccccc23)cn1: 37.5%.
The same measure, in the same setting: the same measure for `O=C(c1cc(Cc2n[nH]c(=O)c3ccccc23)ccc1F)N1CCN(C(=O)C2CC2)CC1` + Cc1[nH]c2ccc(F)cc2c1-c1nc2c3cccnc3c3ncccc3c2[nH]1: 92.8%.

The same test, now with this note: second compound 0.316 µM; first compound 10 µM; stronger effect = lower value.
With `COc1ncnc(C2CC2)c1-c1ncc2cnn(Cc3ccc(-c4nc(C(F)(F)F)cn4C(C)C)cc3)c2n1` + Cc1[nH]c2ccc(F)cc2c1-c1nc2c3cccnc3c3ncccc3c2[nH]1, the viability, T/C was 35.2%.
For `CCCS(=O)(=O)Nc1ccc(F)c(C(=O)c2c[nH]c3ncc(-c4ccc(Cl)cc4)cc23)c1F` + Cc1cnc(CNC(=O)c2c(=O)c3ccc(N4CCCN(C)CC4)nc3n3c2sc2ccccc23)cn1, the viability, T/C was 16.5%.
Same read-out and setting: to `O=C(c1cc(Cc2n[nH]c(=O)c3ccccc23)ccc1F)N1CCN(C(=O)C2CC2)CC1` + Cc1[nH]c2ccc(F)cc2c1-c1nc2c3cccnc3c3ncccc3c2[nH]1 belongs 52.1%.

The test is the same for the next values; noted with them: second compound 1 µM; first compound 0.0316 µM; stronger effect = lower value.
In the case of `COc1ncnc(C2CC2)c1-c1ncc2cnn(Cc3ccc(-c4nc(C(F)(F)F)cn4C(C)C)cc3)c2n1` + Cc1[nH]c2ccc(F)cc2c1-c1nc2c3cccnc3c3ncccc3c2[nH]1, the viability, T/C is 41.4%.
Same read-out and setting: to `CCCS(=O)(=O)Nc1ccc(F)c(C(=O)c2c[nH]c3ncc(-c4ccc(Cl)cc4)cc23)c1F` + Cc1cnc(CNC(=O)c2c(=O)c3ccc(N4CCCN(C)CC4)nc3n3c2sc2ccccc23)cn1 belongs 55.6%; to `O=C(c1cc(Cc2n[nH]c(=O)c3ccccc23)ccc1F)N1CCN(C(=O)C2CC2)CC1` + Cc1[nH]c2ccc(F)cc2c1-c1nc2c3cccnc3c3ncccc3c2[nH]1, 109%.

Staying with this test, now noted: second compound 1 µM; first compound 0.1 µM; stronger effect = lower value.
On to `COc1ncnc(C2CC2)c1-c1ncc2cnn(Cc3ccc(-c4nc(C(F)(F)F)cn4C(C)C)cc3)c2n1` + Cc1[nH]c2ccc(F)cc2c1-c1nc2c3cccnc3c3ncccc3c2[nH]1, for which the viability, T/C is 37.9%.
With `CCCS(=O)(=O)Nc1ccc(F)c(C(=O)c2c[nH]c3ncc(-c4ccc(Cl)cc4)cc23)c1F` + Cc1cnc(CNC(=O)c2c(=O)c3ccc(N4CCCN(C)CC4)nc3n3c2sc2ccccc23)cn1, the viability, T/C is 23.6%.
Still for that read-out and setting: to `O=C(c1cc(Cc2n[nH]c(=O)c3ccccc23)ccc1F)N1CCN(C(=O)C2CC2)CC1` + Cc1[nH]c2ccc(F)cc2c1-c1nc2c3cccnc3c3ncccc3c2[nH]1 belongs 112%.

Still in this test, the particulars now being: second compound 1 µM; first compound 0.316 µM; stronger effect = lower value.
For the molecule `COc1ncnc(C2CC2)c1-c1ncc2cnn(Cc3ccc(-c4nc(C(F)(F)F)cn4C(C)C)cc3)c2n1` + Cc1[nH]c2ccc(F)cc2c1-c1nc2c3cccnc3c3ncccc3c2[nH]1, the viability, T/C was 35.3%.
Still for that read-out and setting: to `CCCS(=O)(=O)Nc1ccc(F)c(C(=O)c2c[nH]c3ncc(-c4ccc(Cl)cc4)cc23)c1F` + Cc1cnc(CNC(=O)c2c(=O)c3ccc(N4CCCN(C)CC4)nc3n3c2sc2ccccc23)cn1 belongs 43.1%; to `O=C(c1cc(Cc2n[nH]c(=O)c3ccccc23)ccc1F)N1CCN(C(=O)C2CC2)CC1` + Cc1[nH]c2ccc(F)cc2c1-c1nc2c3cccnc3c3ncccc3c2[nH]1, 91.5%.

Staying with this test, now noted: second compound 1 µM; first compound 1 µM; stronger effect = lower value.
`COc1ncnc(C2CC2)c1-c1ncc2cnn(Cc3ccc(-c4nc(C(F)(F)F)cn4C(C)C)cc3)c2n1` + Cc1[nH]c2ccc(F)cc2c1-c1nc2c3cccnc3c3ncccc3c2[nH]1: the viability, T/C was 41.2%.
Take `CCCS(=O)(=O)Nc1ccc(F)c(C(=O)c2c[nH]c3ncc(-c4ccc(Cl)cc4)cc23)c1F` + Cc1cnc(CNC(=O)c2c(=O)c3ccc(N4CCCN(C)CC4)nc3n3c2sc2ccccc23)cn1: the viability, T/C is 18.8%.
Turning to `O=C(c1cc(Cc2n[nH]c(=O)c3ccccc23)ccc1F)N1CCN(C(=O)C2CC2)CC1` + Cc1[nH]c2ccc(F)cc2c1-c1nc2c3cccnc3c3ncccc3c2[nH]1, the viability, T/C is 93.8%.

Still in this test, the particulars now being: second compound 1 µM; first compound 3.16 µM; stronger effect = lower value.
For `COc1ncnc(C2CC2)c1-c1ncc2cnn(Cc3ccc(-c4nc(C(F)(F)F)cn4C(C)C)cc3)c2n1` + Cc1[nH]c2ccc(F)cc2c1-c1nc2c3cccnc3c3ncccc3c2[nH]1, the viability, T/C is 40.5%.
Still for that read-out and setting: to `CCCS(=O)(=O)Nc1ccc(F)c(C(=O)c2c[nH]c3ncc(-c4ccc(Cl)cc4)cc23)c1F` + Cc1cnc(CNC(=O)c2c(=O)c3ccc(N4CCCN(C)CC4)nc3n3c2sc2ccccc23)cn1 belongs 19.7%.
`O=C(c1cc(Cc2n[nH]c(=O)c3ccccc23)ccc1F)N1CCN(C(=O)C2CC2)CC1` + Cc1[nH]c2ccc(F)cc2c1-c1nc2c3cccnc3c3ncccc3c2[nH]1: the viability, T/C was 90.3%.

The test is the same for the next values; noted with them: second compound 1 µM; first compound 10 µM; stronger effect = lower value.
For `COc1ncnc(C2CC2)c1-c1ncc2cnn(Cc3ccc(-c4nc(C(F)(F)F)cn4C(C)C)cc3)c2n1` + Cc1[nH]c2ccc(F)cc2c1-c1nc2c3cccnc3c3ncccc3c2[nH]1, the viability, T/C is 39.8%.
On to `CCCS(=O)(=O)Nc1ccc(F)c(C(=O)c2c[nH]c3ncc(-c4ccc(Cl)cc4)cc23)c1F` + Cc1cnc(CNC(=O)c2c(=O)c3ccc(N4CCCN(C)CC4)nc3n3c2sc2ccccc23)cn1, for which the viability, T/C is 5.79%.
As for `O=C(c1cc(Cc2n[nH]c(=O)c3ccccc23)ccc1F)N1CCN(C(=O)C2CC2)CC1` + Cc1[nH]c2ccc(F)cc2c1-c1nc2c3cccnc3c3ncccc3c2[nH]1, the viability, T/C is 60.2%.

The test is the same for the next values; noted with them: second compound 3.16 µM; first compound 0.0316 µM; stronger effect = lower value.
On to `COc1ncnc(C2CC2)c1-c1ncc2cnn(Cc3ccc(-c4nc(C(F)(F)F)cn4C(C)C)cc3)c2n1` + Cc1[nH]c2ccc(F)cc2c1-c1nc2c3cccnc3c3ncccc3c2[nH]1, for which the viability, T/C was 35.1%.
Turning to `CCCS(=O)(=O)Nc1ccc(F)c(C(=O)c2c[nH]c3ncc(-c4ccc(Cl)cc4)cc23)c1F` + Cc1cnc(CNC(=O)c2c(=O)c3ccc(N4CCCN(C)CC4)nc3n3c2sc2ccccc23)cn1, the viability, T/C was 10.6%.
As to `O=C(c1cc(Cc2n[nH]c(=O)c3ccccc23)ccc1F)N1CCN(C(=O)C2CC2)CC1` + Cc1[nH]c2ccc(F)cc2c1-c1nc2c3cccnc3c3ncccc3c2[nH]1, the viability, T/C is 81.6%.

Staying with this test, now noted: second compound 3.16 µM; first compound 0.1 µM; stronger effect = lower value.
Take `COc1ncnc(C2CC2)c1-c1ncc2cnn(Cc3ccc(-c4nc(C(F)(F)F)cn4C(C)C)cc3)c2n1` + Cc1[nH]c2ccc(F)cc2c1-c1nc2c3cccnc3c3ncccc3c2[nH]1: the viability, T/C was 27.6%.
